Read-outs that look alike come from different tables or passages of the source.
Tests used:
[1] = biological target: T1, CDK2/CyclinE1 (Homo sapiens, UniProt P24941); assay: Assay for inhibition of CDK2/CyclinE1 (Caliper microfluidic kinase assay); type: biochemical; details: read-out: CDK2 IC50
T1 construct: purchased SignalChem C29-18G
Outline: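 IC50 came from 4-parameter fits of substrate-to-product conversion, separated on a Caliper chip after an EDTA stop. Reactions ran 3 hours at room temperature with 100 μM ATP, 5 μM fluorescent FL-18 peptide and 5 nM enzyme in 100 mM HEPES pH 7.5, 10 mM MgCl2.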

[2] = tested on: phosphorylation of Retinoblastoma Protein (pRb Ser807/811 or Ser780) in T47D cells; assay: Inhibition of phosphorylation of retinoblastoma protein (pRb) in T47D cell (ELISA); type: cell-based, human; details: Homo sapiens, T47D, read-out: Phospho T47D Ser807 IC50, pRb Ser807 phosphorylation, T47D cells
Outline: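 T47D cells in RPMI 1640 + 10% FBS, adhered overnight, then treated 24 h with 3-fold compound titrations (top concentration […]). Lysates assayed by sandwich ELISA for pRb Ser807/811 or Ser780 with HRP/TMB detection. IC50 from 4-parameter sigmoidal fit.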

[3] = biological target: T2, CDK4/CyclinD1 (Homo sapiens, UniProt P11802); assay: Assay for inhibition of CDK4/CyclinD1 (Caliper microfluidic kinase assay); type: biochemical
T2 construct: purchased Thermofisher PR8064A
Outline: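 IC50 was obtained by 4-parameter sigmoidal fitting after 1 nM CDK4/CyclinD1, 200 μM ATP and 1 μM FL-34 substrate reacted for 3 h at room temperature (pH 7.5 HEPES, 10 mM MgCl2). After EDTA quench, substrate and product were separated and detected on a Caliper microfluidic chip.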

[4] = tested on: T47D breast cancer cells; assay: Anti-proliferation assay in T47D cell (Cyquant, day 6); type: cell-based, human; details: Homo sapiens, T47D, anti-proliferation, T47D cells; read-out: T47D IC50
Outline: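 A ten-point, 3-fold compound series (10 μM down to 0.51 nM) was applied to overnight-settled cells in 10% FBS RPMI 1640, and DNA content was read by CyQuant fluorescence 6 days later. An untreated plate read before dosing served as baseline for subtraction before IC50 fitting.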

[5] = biological target: T3, CDK6/CyclinD3 (Homo sapiens, UniProt Q00534); assay: Assay for inhibition of CDK6/CyclinD3 (Caliper microfluidic kinase assay); type: biochemical
T3 construct: purchased Carna 04-107
Outline: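 IC50s came from four-parameter dose-response fits of microfluidic substrate/product separation data. Reactions held 2 nM CDK6/CyclinD3, 300 μM ATP and 1 μM 5-FAM peptide FL-34 in pH 7.5 HEPES/MgCl2 buffer, ran 3 hours at room temperature, then were quenched with EDTA.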

T3 sequence (Q00534 whole entry): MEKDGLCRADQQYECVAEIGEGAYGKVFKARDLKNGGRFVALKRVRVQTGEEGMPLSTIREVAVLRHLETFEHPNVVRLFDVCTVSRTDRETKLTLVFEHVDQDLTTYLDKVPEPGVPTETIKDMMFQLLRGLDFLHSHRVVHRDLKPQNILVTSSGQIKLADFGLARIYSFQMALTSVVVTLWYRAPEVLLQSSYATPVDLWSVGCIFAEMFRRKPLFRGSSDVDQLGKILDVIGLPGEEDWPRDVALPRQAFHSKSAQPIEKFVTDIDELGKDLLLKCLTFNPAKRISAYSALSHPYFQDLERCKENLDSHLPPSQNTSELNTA
T3 sequence (P30281 whole entry partner): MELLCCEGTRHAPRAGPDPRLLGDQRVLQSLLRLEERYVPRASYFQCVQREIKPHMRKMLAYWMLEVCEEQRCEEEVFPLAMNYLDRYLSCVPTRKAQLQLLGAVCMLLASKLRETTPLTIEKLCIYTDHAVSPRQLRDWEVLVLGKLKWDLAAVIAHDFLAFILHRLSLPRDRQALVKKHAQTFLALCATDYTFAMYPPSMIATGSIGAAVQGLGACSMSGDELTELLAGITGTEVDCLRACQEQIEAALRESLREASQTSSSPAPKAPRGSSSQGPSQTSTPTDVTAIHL
T2 sequence (P11802 whole entry): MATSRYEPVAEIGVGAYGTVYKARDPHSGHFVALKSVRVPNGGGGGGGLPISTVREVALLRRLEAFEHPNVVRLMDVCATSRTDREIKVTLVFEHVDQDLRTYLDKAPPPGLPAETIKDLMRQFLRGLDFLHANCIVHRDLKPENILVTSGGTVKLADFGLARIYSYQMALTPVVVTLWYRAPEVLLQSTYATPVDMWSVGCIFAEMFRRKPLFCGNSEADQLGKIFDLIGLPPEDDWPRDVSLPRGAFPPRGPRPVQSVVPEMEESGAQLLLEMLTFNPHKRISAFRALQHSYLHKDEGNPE
T2 sequence (P24385 whole entry partner): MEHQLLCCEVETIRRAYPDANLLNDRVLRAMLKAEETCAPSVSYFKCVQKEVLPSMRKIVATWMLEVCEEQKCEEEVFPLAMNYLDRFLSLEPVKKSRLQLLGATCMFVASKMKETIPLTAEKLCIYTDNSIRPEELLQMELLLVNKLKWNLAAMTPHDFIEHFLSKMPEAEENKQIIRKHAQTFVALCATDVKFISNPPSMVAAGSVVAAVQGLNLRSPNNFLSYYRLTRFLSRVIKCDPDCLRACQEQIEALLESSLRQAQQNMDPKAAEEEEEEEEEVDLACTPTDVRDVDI

Compound	IC50 ([1]; CDK2/CyclinE1, 100 μM ATP)	IC50 [2]	IC50 ([3]; CDK4/CyclinD1, 200 μM ATP)	IC50 [4]	IC50 ([5]; CDK6/CyclinD3, 300 μM ATP)	IC50 ([1]; CDK2/CyclinE1)	IC50 ([3]; CDK4/CyclinD1)	IC50 ([5]; CDK6/CyclinD3)
CC(C)n1cnc2c(F)nc(-c3ccnc(Nc4ccc(N5CCC(C)(N)CC5=O)cc4)n3)cc21 (centres unmarked) [compound 280]	< 0.01 µM	< 0.1 µM	< 0.01 µM	< 0.1 µM	< 0.01 µM	–	–	–
CC(C)n1cnc2c(F)nc(-c3ccnc(Nc4ccc(N5CCC(N(C)C)CC5=O)cc4)n3)cc21 (centres unmarked) [compound 281]	< 0.01 µM	< 0.1 µM	< 0.01 µM	< 0.1 µM	< 0.01 µM	–	–	–
CC(C)n1cnc2c(F)nc(-c3ccnc(Nc4ccc(N5CCCNC5=O)cc4)n3)cc21 [compound 282]	< 0.01 µM	< 0.1 µM	< 0.01 µM	< 0.1 µM	< 0.01 µM	–	–	–
CC(C)n1cnc2c(F)nc(-c3ccnc(Nc4ccc(N5CCCC(N(C)C)C5=O)cn4)n3)cc21 (centres unmarked) [compound 283]	> 1 µM	< 0.1 µM	< 0.01 µM	< 0.1 µM	< 0.01 µM	–	–	–
CCN1CCN(Cc2ccc(Nc3nccc(-c4cc5c(ncn5C(C)C)c(F)n4)n3)nc2)CC1 [compound 285]	> 1 µM	< 0.1 µM	< 0.01 µM	< 0.1 µM	0.01 to 0.1 µM	–	–	–
CC(C)n1cnc2c(F)nc(-c3ccnc(Nc4ccc(N5CCNCC5)cn4)n3)cc21 [compound 286]	0.1 to 1 µM	< 0.1 µM	< 0.01 µM	< 0.1 µM	0.01 to 0.1 µM	–	–	–
CC(C)n1cnc2c(F)nc(-c3ccnc(Nc4ccc(N5CCCC(N)C5=O)cc4)n3)cc21 (centres unmarked) [compound 293]	0.01 to 0.1 µM	< 0.1 µM	< 0.01 µM	< 0.1 µM	< 0.01 µM	–	–	–
CCN1CC2CC1CN2c1ccc(Nc2nccc(-c3cc4c(ncn4C(C)C)c(OC)n3)n2)nc1 (centres unmarked) [compound 312]	–	< 0.1 µM	–	0.1 to 0.5 µM	–	> 1 µM	< 0.01 µM	0.01 to 0.1 µM
COc1nc(-c2ccnc(Nc3ccc(N4CCC(N5CCC5)CC4=O)cn3)n2)cc2c1ncn2C(C)C (centres unmarked) [compound 314]	–	< 0.1 µM	–	< 0.1 µM	–	0.01 to 0.1 µM	< 0.01 µM	0.01 to 0.1 µM
COc1nc(-c2ccnc(Nc3ccc(N4CCC(N5CC(F)(F)C5)CC4=O)cn3)n2)cc2c1ncn2C(C)C (centres unmarked) [compound 315]	–	< 0.1 µM	–	0.1 to 0.5 µM	–	0.1 to 1 µM	< 0.01 µM	0.01 to 0.1 µM

From patent US20220296595A1, “CDK INHIBITORS” (QILU REGOR THERAPEUTICS INC., priority 2019, published 2022)
